From US20150045291A1, “LIPOPEPTIDE CONJUGATES COMPRISING SPHINGOLIPID AND HIV GP41 DERIVED PEPTIDES” (priority 2012, published 2015)
Read-outs that look alike come from different tables or passages of the source. Starred links: 1 amine or outer side, 2 acyl side, 3 side chain; linkers in the order of their positions; H or OH if unused. Residues, ends and D or L forms follow the SMILES beside them. *: point of attachment. Cholesteryloxycarbonyl = CC(C)CCC[C@@H](C)[C@H]1CC[C@H]2[C@@H]3CC=C4C[C@@H](OC(=O)*)CC[C@]4(C)[C@H]3CC[C@]12C; X1 = Cc1c(C)c2c(c(C)c1OC(=O)CCC(=O)*)CCC(C)(CCCC(C)CCCC(C)CCCC(C)C)O2; Sphinganine = CCCCCCCCCCCCCCC[C@@H](O)[C@H](CO)N*; Palmitoyl = CCCCCCCCCCCCCCCC(=O)*; CO = O=C([*:1])[*:2]

How the values were obtained:
[1] = Secondary structure determination by circular dichroism; assay type: physicochemical; details: percentage of α-helical structure, CD, 10 μM peptide in HEPES buffer 5 mM pH 7.4, 25° C.
Protocol: Secondary structure determination. Circular Dichroism (CD) measurements were performed by using an AppliedPhoto physics spectropolarimeter. The spectra were scanned using a thermostatic quartz cuvette with a path length of 1 mm. Wavelength scans were performed at 25° C.; the average recording time was 15 sec, in 1-nm steps, in the wavelength range of 190-260 nm. Each peptide concentration was 10 μM in HEPES buffer (5 mM, pH 7.4).
Helicity (%): The percentage of α-helical structure was determined as described in the section of Materials and Methods.

[2] = Hydrophobicity by RP-HPLC; assay type: physicochemical; details: RP-HPLC retention time, analytical C2 column, CH3CN/H2O gradient
Protocol: Peptide synthesis, lipid moiety conjugation, and fluorescent labeling. Peptides were synthesized on Rink Amide MBHA resin by using the F-moc strategy. Several peptides contain a lysine residue at their C-terminus with an MTT side-chain protecting group (Nova-biochem AG, Switzerland) that requires a special deprotection step under mild acidic conditions (2×1 min of 5% trifluoroacetic acid (TFA) in dichloromethane (DCM) and 30 min of 1% TFA in DCM). This enables the conjugation of a lipid moiety or a fluorescent probe to the C-terminus. The chemical synthesis schemes of the following compounds 1-5 are described in FIG. 6. Conjugation of hexadecanoic (palmitic) acid (C16) or α-Tocopherol succinate (Sigma Chemical Co., Israel) to the N-terminus of selected peptides (compound 2 and compound 4, respectively) was performed using standard F-moc chemistry. Conjugation of cholesterol to the N-terminus of a peptide (compound 3) was performed by adding 10 equivalents of cholesteryl chloroformate (Alfa Aesar, USA) dissolved in DCM, together with 3 equivalents of triethyl amine to the peptides' resin. Conjugation of D-erythro-Dihydrosphingosine (D-erythro sphinganine), (Matreya, LCC, USA) to the N- or C-terminus of a peptide (compound 1) was performed as followed: first, 10 equivalents of N,N′-Disuccinimidyl carbonate (DSC) (Chem-Impex Internatinal, USA) and 20 equivalents of N,N-Diisopropylethylamine (DIEA) were added to the resin for 2 hours in dimethylformamide (DMF). Then, 2 equivalents of sphinganine and 2 equivalents of DIEA were added for overnight incubation in DMF anhydrous. The conjugation of D-erythro-Sphingosine (Matreya, LCC, USA) to the peptides (compound 5) was performed as described for compound 1. Addition of NBD-F, fluoride (4-fluoro-7-nitrobenzofurazan) (NBD) fluorescent probe (Biotium, USA) to the N- or C-terminus of selected peptides was performed in DMF for 1 hour. All peptides were cleaved from the resin by a TFA:DDW:TES (93.1:4.9:2 (v/v)) mixture, and purified by reverse-phase high-performance liquid chromatography (RP-HPLC) to >95% homogeneity. The molecular weight of the peptides was confirmed by platform LCA electrospray mass spectrometry. For hydrophobicity tests the peptides were eluted with a flow rate of 0.6 ml/min using a two-step linear gradient from CH3CN/H2O 20:80 v/v to CH3CN/H2O 95:5 v/v in 30 min and from CH3CN/H2O 95:5 v/v to CH3CN/H2O 95:5 in 10 min v/v on an analytical C2 column (7 μm particle size, pore size 100 Å) from Nucleosil.
Hydrophobicity (min): Hydrophobicity was analyzed by RP-HPLC. The retention time of each compound is presented.

[3] = system: fully infectious HIV-1 HXB2
[4] = Peptide binding to LUV, PC:Chol (9:1); details: Ka, NBD-labeled compound titrated with LUV; mean±s.d. of the fitting curve, n=3
Protocol: (§1) Lipid vesicle preparation. Large unilamellar vesicles (LUV) were prepared from egg phosphatidylcholine (PC), cholesterol (Chol) and egg yolk sphingomyelin (SM) (Sigma Chemical Co., Israel). A dried film of lipids containing a total of 2 mg of PC:SM:Chol (1:1:1) or 2 mg of PC:Chol (9:1) was suspended in PBS and vortexed for 1.5 min. The lipid suspension underwent five cycles of freezing-thawing and then extrusion through polycarbonate membranes with 1 μm and 0.1 μm diameter pores for 25 times.
(§2) Peptide binding to LUV. The degree of peptide association with lipid vesicles was measured by adding lipid vesicles to 0.1 μM fluorescently NBD-labeled peptides at room temperature. The fluorescence intensity was measured as a function of the lipid:peptide molar ratio, with excitation set at 467 nm (10-nm slit) and emission set at 530 nm (10-nm slit). To determine the extent of the lipid's contribution to any given signal, the readings after the addition of lipid vesicles were subtracted as background from the recorded fluorescence intensity. The affinity constants were then determined by steady state affinity model using non-linear least-squares (NLLSQ). The NLLSQ fitting was done using the following equation: […]
(§3) where X is the lipid concentration, Y(x) is the fluorescence emission, Fmax is the maximal difference in the emission of NBD-labeled peptide before and after the addition of lipids (it represents the maximum peptide bound to lipid), and Ka is the affinity constant.
(§4) Compound association with lipid vesicles was estimated by NBD-labeled compound titration with large unilamellar vesicles. The mole ratio between phosphatidylcholine (PC), sphingomyelin (SM), and cholesterol (Chol) is presented for each vesicle. The membrane-binding constants (Ka) were calculated from equation 2 in the Methods. Results represent the mean±s.d. of the fitting curve, n=3.

[5] = Peptide binding to LUV, PC:SM:Chol (1:1:1); details: Ka, NBD-labeled compound titrated with LUV; mean±s.d. of the fitting curve, n=3
Protocol: as §1, §2, §3, §4

[6] = system: pseudotyped virus with LAI ENV (CXCR4 tropic)
[7] = system: pseudotyped virus with AD8 ENV (CCR5 tropic)
[8] = system: Fuzeon-resistant LAI strain with V38E mutation in gp41; test: Fuzeon-resistant virus infection; details: mutation in the GIV sequence (V38E)
[9] = fully infectious HIV-1 system (Table 2)
[10] = read-out: Virus-cell fusion IC50, TZM-bl cells infected with fully contagious HIV, mean±s.d., n=3

Compound | Helicity (%) [1] | Hydrophobicity [2] | IC50 [3, 9] | IC50 [3, 10] | Inhibiting viral infectivity (in words) ([3]; up to 4 μM, the maximal concentration tested) | Membrane-binding constant (M^−1), PC:Chol (9:1) [4] | Membrane-binding constant (M^−1), PC:SM:Chol (1:1:1) [5] | Effect on viral infectivity / fusion (in words) ([3]; at / up to 1 μM) | IC50 ([3]; read-out: IC50 (inhibitory concentration at 50% infectivity), TZM-bl cells, fully contagious HXB2 HIV-1) | Viral infectivity curves, compound added to target cells before the virus vs immediately after ([3]; time of addition) | IC50 [6] | IC50 [7] | Antiviral activity against V38E mutant (in words) [8]
CC[C@H](C)[C@H](NC(=O)CNC(=O)[C@H](Cc1c[nH]c2ccccc12)NC(=O)[C@@H](NC(=O)[C@@H](NC(=O)[C@H](CC(C)C)NC(=O)[C@H](CCC(N)=O)NC(=O)[C@H](CC(C)C)NC(=O)[C@H](CC(C)C)NC(=O)O[C@H]1CC[C@@]2(C)C(=CC[C@H]3[C@@H]4CC[C@H]([C@H](C)CCCC(C)C)[C@@]4(C)CC[C@@H]32)C1)[C@@H](C)O)C(C)C)C(=O)N[C@@H](CCCCN)C(=O)N[C@@H](CCC(N)=O)C(=O)N[C@@H](CC(C)C)C(=O)N[C@@H](CCC(N)=O)C(=O)N[C@@H](C)C(=O)N[C@@H](CCCNC(=N)N)C(=O)N[C@H](C(=O)N[C@@H](CC(C)C)C(N)=O)[C@@H](C)CC [Cholesterol-N17] (Cholesteryloxycarbonyl-LLQLTVWGIKQLQARIL-NH2) | <10% | 28.9 min | > 4 µM | > 4 µM | – | – | – | – | – | – | – | – | –
CC[C@H](C)[C@H](NC(=O)CNC(=O)[C@H](Cc1c[nH]c2ccccc12)NC(=O)[C@@H](NC(=O)[C@@H](NC(=O)[C@H](CC(C)C)NC(=O)[C@H](CCC(N)=O)NC(=O)[C@H](CC(C)C)NC(=O)[C@@H](N)CC(C)C)[C@@H](C)O)C(C)C)C(=O)N[C@@H](CCCCN)C(=O)N[C@@H](CCC(N)=O)C(=O)N[C@@H](CC(C)C)C(=O)N[C@@H](CCC(N)=O)C(=O)N[C@@H](C)C(=O)N[C@@H](CCCNC(=N)N)C(=O)N[C@H](C(=O)N[C@@H](CC(C)C)C(N)=O)[C@@H](C)CC [N17, LLQLTVWGIKQLQARIL] (H-LLQLTVWGIKQLQARIL-NH2; C-terminus assumed) | 20% | 18.2 min | > 4 µM | > 4 µM | not active | – | – | – | – | – | – | – | –
CCCCCCCCCCCCCCCC(=O)N[C@@H](CC(C)C)C(=O)N[C@@H](CC(C)C)C(=O)N[C@@H](CCC(N)=O)C(=O)N[C@@H](CC(C)C)C(=O)N[C@H](C(=O)N[C@H](C(=O)N[C@@H](Cc1c[nH]c2ccccc12)C(=O)NCC(=O)N[C@H](C(=O)N[C@@H](CCCCN)C(=O)N[C@@H](CCC(N)=O)C(=O)N[C@@H](CC(C)C)C(=O)N[C@@H](CCC(N)=O)C(=O)N[C@@H](C)C(=O)N[C@@H](CCCNC(=N)N)C(=O)N[C@H](C(=O)N[C@@H](CC(C)C)C(N)=O)[C@@H](C)CC)[C@@H](C)CC)C(C)C)[C@@H](C)O [Palmitic acid-N17] (Palmitoyl-LLQLTVWGIKQLQARIL-NH2) | <10% | 26.7 min | > 4 µM | > 4 µM | – | 170000 ± 30000 M⁻¹ | 150000 ± 70000 M⁻¹ | – | – | – | – | – | –
CCCCCCCCCCCCCCC[C@@H](O)[C@H](CO)NC(=O)N[C@@H](CC(C)C)C(=O)N[C@@H](CC(C)C)C(=O)N[C@@H](CCC(N)=O)C(=O)N[C@@H](CC(C)C)C(=O)N[C@H](C(=O)N[C@H](C(=O)N[C@@H](Cc1c[nH]c2ccccc12)C(=O)NCC(=O)N[C@H](C(=O)N[C@@H](CCCCN)C(=O)N[C@@H](CCC(N)=O)C(=O)N[C@@H](CC(C)C)C(=O)N[C@@H](CCC(N)=O)C(=O)N[C@@H](C)C(=O)N[C@@H](CCCNC(=N)N)C(=O)N[C@H](C(=O)N[C@@H](CC(C)C)C(N)=O)[C@@H](C)CC)[C@@H](C)CC)C(C)C)[C@@H](C)O [Sphinganine-N17, Sphinganine-LLQLTVWGIKQLQARIL] ({Sphinganine-CO}-LLQLTVWGIKQLQARIL-NH2) | <10% | 27.2 min | 0.121 ± 0.036 µM | – | – | 470000 ± 100000 M⁻¹ | 84000 ± 14000 M⁻¹ | completely blocks fusion | 0.121 µM | no difference | 0.312 µM | 0.403 µM | preserved its potent antiviral activity
CC[C@H](C)[C@H](NC(=O)CNC(=O)[C@H](Cc1c[nH]c2ccccc12)NC(=O)[C@@H](NC(=O)[C@@H](NC(=O)[C@H](CC(C)C)NC(=O)[C@H](CCC(N)=O)NC(=O)[C@H](CC(C)C)NC(=O)[C@H](CC(C)C)NC(=O)CCC(=O)Oc1c(C)c(C)c2c(c1C)CCC(C)(CCCC(C)CCCC(C)CCCC(C)C)O2)[C@@H](C)O)C(C)C)C(=O)N[C@@H](CCCCN)C(=O)N[C@@H](CCC(N)=O)C(=O)N[C@@H](CC(C)C)C(=O)N[C@@H](CCC(N)=O)C(=O)N[C@@H](C)C(=O)N[C@@H](CCCNC(=N)N)C(=O)N[C@H](C(=O)N[C@@H](CC(C)C)C(N)=O)[C@@H](C)CC (stereo partly drawn) [Tocopherol-N17] (X1-LLQLTVWGIKQLQARIL-NH2) | <10% | 28.9 min | > 4 µM | > 4 µM | – | – | – | – | – | – | – | – | –
enfuvirtide | – | – | – | – | – | 64000 ± 14000 M⁻¹ | 31000 ± 5000 M⁻¹ | – | – | – | – | – | considerably weakened the antiviral activity
